In publication PMC10423561, “Effects of the CYP3A inhibitors, voriconazole, itraconazole, and fluconazole on the pharmacokinetics of osimertinib in rats” (PeerJ, 2023):
Several values for one entry are separate records, joined by “and”; a condition that tells them apart may be missing. Identical values can stand only once.

Test: Stability of OSIM in rat plasma QC samples (bench-top, autosampler, freeze-thaw, long-term)
Type: in vitro ADME
Conditions: for B-LQC RE, AVERAGE / B-LQC measured concentration, AVERAGE / B-LQC RE / B-LQC measured concentration: nominal 5.02 ng/ml; for B-LQC RE, AVERAGE / B-LQC measured concentration, AVERAGE / B-MQC RE, AVERAGE / B-MQC measured concentration, AVERAGE / B-HQC RE, AVERAGE / B-HQC measured concentration, AVERAGE: average of 4; for B-LQC RE / B-LQC measured concentration / B-MQC RE / B-MQC measured concentration / B-HQC RE / B-HQC measured concentration: single replicates; for B-MQC RE, AVERAGE / B-MQC measured concentration, AVERAGE / B-MQC RE / B-MQC measured concentration: nominal 200.8 ng/ml; for B-HQC RE, AVERAGE / B-HQC measured concentration, AVERAGE / B-HQC RE / B-HQC measured concentration: nominal 401.6 ng/ml; for Relative stability: n=4
Procedure: Bench-top stability was tested by placing the pretreatment samples at room temperature ([…]) for 6 h, autosampler stability was assessed by placing the prepared sample in the injector for 24 h, freeze-thaw stability was determined to be adequate over at least three cycles (from −30 °C to 25 °C), and long-term stability was assessed to be at least one month before sample preparation (at −30 °C for 30 d). For all stability results, the average %RE of OSIM ranged from −11.04% to 7.48% across the three QC concentrations, with the %CV less than 6.42% (Table S4).

Structure (SMILES): C=CC(=O)Nc1cc(Nc2nccc(-c3cn(C)c4ccccc34)n2)c(OC)cc1N(C)CCN(C)C [OSIM, Osimertinib]
- B-LQC RE, AVERAGE (-30℃(30 day)): -11.04%
- B-LQC measured concentration, AVERAGE (-30℃(30 day)): 4.47 ng/mL
- B-LQC RE (-30℃(30 day)): -11.88% and -13.96% and -8.90% and -9.43%
- B-LQC measured concentration (-30℃(30 day)): 4.42 ng/mL and 4.32 ng/mL and 4.57 ng/mL and 4.55 ng/mL
- B-MQC RE, AVERAGE (-30℃(30 day)): -0.87%
- B-MQC measured concentration, AVERAGE (-30℃(30 day)): 199.05 ng/mL
- B-MQC RE (-30℃(30 day)): 4.20% and -2.59% and -1.56% and -3.53%
- B-MQC measured concentration (-30℃(30 day)): 209.23 ng/mL and 195.60 ng/mL and 197.67 ng/mL and 193.72 ng/mL
- B-HQC RE, AVERAGE (-30℃(30 day)): -1.09%
- B-HQC measured concentration, AVERAGE (-30℃(30 day)): 397.22 ng/mL
- B-HQC RE (-30℃(30 day)): -0.61% and 0.80% and -5.35%
- B-HQC measured concentration (-30℃(30 day)): 399.15 ng/mL and 404.80 ng/mL and 380.13 ng/mL
- B-LQC RE, AVERAGE (AUTO(24h)): -6.71%
- B-LQC measured concentration, AVERAGE (AUTO(24h)): 4.68 ng/mL
- B-LQC RE (AUTO(24h)): -12.78% and -6.93% and -1.98% and -5.16%
- B-LQC measured concentration (AUTO(24h)): 4.38 ng/mL and 4.67 ng/mL and 4.92 ng/mL and 4.76 ng/mL
- B-MQC RE, AVERAGE (AUTO(24h)): -1.60%
- B-MQC measured concentration, AVERAGE (AUTO(24h)): 197.59 ng/mL
- B-MQC RE (AUTO(24h)): -1.66% and 4.91% and -1.78% and -7.87%
- B-MQC measured concentration (AUTO(24h)): 197.46 ng/mL and 210.66 ng/mL and 197.22 ng/mL and 184.99 ng/mL
- B-HQC RE, AVERAGE (AUTO(24h)): -4.24%
- B-HQC measured concentration, AVERAGE (AUTO(24h)): 384.55 ng/mL
- B-HQC RE (AUTO(24h)): -2.81% and -5.55% and -7.95% and -0.66%
- B-HQC measured concentration (AUTO(24h)): 390.30 ng/mL and 379.32 ng/mL and 369.66 ng/mL and 398.95 ng/mL
- B-LQC RE, AVERAGE (ROOM(6h)): 7.48%
- B-LQC measured concentration, AVERAGE (ROOM(6h)): 5.40 ng/mL
- B-LQC RE (ROOM(6h)): 11.63% and 8.45% and 4.43% and 5.39%
- B-LQC measured concentration (ROOM(6h)): 5.60 ng/mL and 5.44 ng/mL and 5.24 ng/mL and 5.29 ng/mL
- B-MQC RE, AVERAGE (ROOM(6h)): 5.16%
- B-MQC measured concentration, AVERAGE (ROOM(6h)): 211.16 ng/mL
- B-MQC RE (ROOM(6h)): 7.61% and 11.08% and 3.27% and -1.32%
- B-MQC measured concentration (ROOM(6h)): 216.07 ng/mL and 223.04 ng/mL and 207.36 ng/mL and 198.15 ng/mL
- B-HQC RE, AVERAGE (ROOM(6h)): -3.51%
- B-HQC measured concentration, AVERAGE (ROOM(6h)): 387.49 ng/mL
- B-HQC RE (ROOM(6h)): -6.10% and -7.91% and 2.69% and -2.75%
- B-HQC measured concentration (ROOM(6h)): 377.12 ng/mL and 369.84 ng/mL and 412.42 ng/mL and 390.57 ng/mL
- B-LQC RE, AVERAGE (after RTF(-30℃30 day)): 6.03%
- B-LQC measured concentration, AVERAGE (after RTF(-30℃30 day)): 5.32 ng/mL
- B-LQC RE (after RTF(-30℃30 day)): -1.95% and 2.78% and 10.68% and 12.61%
- B-LQC measured concentration (after RTF(-30℃30 day)): 4.92 ng/mL and 5.16 ng/mL and 5.56 ng/mL and 5.65 ng/mL
- B-MQC RE, AVERAGE (after RTF(-30℃30 day)): -2.85%
- B-MQC measured concentration, AVERAGE (after RTF(-30℃30 day)): 195.09 ng/mL
- B-MQC RE (after RTF(-30℃30 day)): -3.40% and 0.97% and -3.10% and -5.85%
- B-MQC measured concentration (after RTF(-30℃30 day)): 193.98 ng/mL and 202.74 ng/mL and 194.57 ng/mL and 189.05 ng/mL
- B-HQC RE, AVERAGE (after RTF(-30℃30 day)): -9.46%
- B-HQC measured concentration, AVERAGE (after RTF(-30℃30 day)): 363.62 ng/mL
- B-HQC RE (after RTF(-30℃30 day)): -9.22% and -10.28% and -11.32% and -7.01%
- B-HQC measured concentration (after RTF(-30℃30 day)): 364.57 ng/mL and 360.31 ng/mL and 356.15 ng/mL and 373.44 ng/mL
- Relative stability (prepared sample in autosampler for 24 h, range over LQC/MQC/HQC): 94.15-103.09%
- Relative stability (rat plasma, long-term at −30 °C for 30 days, range over LQC/MQC/HQC): 88.96-98.91%
- Relative stability (rat plasma, room temperature for 6 h, range over LQC/MQC/HQC (5, 200, 400 ng/mL)): 96.49-107.48%
- Relative stability (rat plasma, three freeze-thaw cycles (−30 °C to 25 °C), range over LQC/MQC/HQC): 90.54-106.03%
